# Laboratory results reported in the Kinase Knowledgebase extract (Sharma et al. 2016).
# Molecular target: EGFR (UniProt P00533)
# Sequence (P00533 whole entry, looked up): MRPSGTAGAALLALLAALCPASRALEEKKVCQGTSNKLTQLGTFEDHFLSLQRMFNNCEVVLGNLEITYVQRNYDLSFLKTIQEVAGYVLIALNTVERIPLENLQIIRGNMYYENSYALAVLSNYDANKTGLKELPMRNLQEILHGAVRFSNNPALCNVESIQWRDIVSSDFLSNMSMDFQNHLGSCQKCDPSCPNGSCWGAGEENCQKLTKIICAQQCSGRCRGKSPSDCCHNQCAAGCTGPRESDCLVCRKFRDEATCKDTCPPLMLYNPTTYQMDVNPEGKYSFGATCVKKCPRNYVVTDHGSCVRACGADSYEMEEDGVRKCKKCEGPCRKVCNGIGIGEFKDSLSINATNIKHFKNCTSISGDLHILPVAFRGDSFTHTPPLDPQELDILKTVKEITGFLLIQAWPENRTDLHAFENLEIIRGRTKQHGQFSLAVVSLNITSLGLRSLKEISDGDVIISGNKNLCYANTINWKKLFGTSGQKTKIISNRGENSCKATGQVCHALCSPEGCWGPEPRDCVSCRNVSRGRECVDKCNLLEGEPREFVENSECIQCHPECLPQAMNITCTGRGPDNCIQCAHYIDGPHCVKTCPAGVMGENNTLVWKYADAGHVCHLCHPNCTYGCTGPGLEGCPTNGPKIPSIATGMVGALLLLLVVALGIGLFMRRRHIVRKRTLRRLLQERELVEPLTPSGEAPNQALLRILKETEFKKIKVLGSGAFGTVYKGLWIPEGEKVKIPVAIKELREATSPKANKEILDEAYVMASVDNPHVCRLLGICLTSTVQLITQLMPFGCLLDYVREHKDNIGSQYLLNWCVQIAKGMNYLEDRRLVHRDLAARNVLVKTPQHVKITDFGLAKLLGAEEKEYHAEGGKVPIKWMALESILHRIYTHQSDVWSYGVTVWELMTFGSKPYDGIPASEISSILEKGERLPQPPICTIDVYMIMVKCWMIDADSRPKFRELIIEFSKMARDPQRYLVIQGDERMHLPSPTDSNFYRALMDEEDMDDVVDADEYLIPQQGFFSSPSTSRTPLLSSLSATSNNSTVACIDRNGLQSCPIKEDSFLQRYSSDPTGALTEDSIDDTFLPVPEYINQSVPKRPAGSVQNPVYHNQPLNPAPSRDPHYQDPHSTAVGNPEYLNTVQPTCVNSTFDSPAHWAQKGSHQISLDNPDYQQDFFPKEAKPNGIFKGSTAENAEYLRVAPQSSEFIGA
row,Compound,IC50
1,COc1cc2ncnc(NCc3cccc4ccccc34)c2cc1OC,148 nM
2,COc1cc2ncnc(NCc3ccccc3)c2cc1OC,10 nM
3,COc1cc2ncnc(NC3CCc4ccccc43)c2cc1OC (stereo not given),1000 nM
4,CC[C@@H](Nc1ncnc2cc(OC)c(OC)cc12)c1ccccc1,234 nM
5,c1ccc(CCNc2ncnc3ccccc23)cc1,4100 nM
6,COc1ccc2c(N[C@@H](C)c3ccccc3)ncnc2c1,4000 nM
7,COc1ccc2c(N[C@H](C)c3ccccc3)ncnc2c1,29 nM
8,c1ccc(CNc2ncnc3ccccc23)cc1,320 nM
9,COc1cc2ncnc(N[C@@H](C)c3ccccc3)c2cc1OC,3760 nM
10,C[C@@H](Nc1ncnc2ccccc12)c1ccccc1,86 nM

# Second part, the molecule after the results:
row,IC50,Compound
1,120 nM,COc1ccc2c(Nc3ccccc3)ncnc2c1
2,> 10000 nM,C[C@H](Nc1ncnc2ccccc12)c1ccccc1
3,1.6 nM,COc1cc2ncnc(N[C@H](C)c3ccccc3)c2cc1OC
4,139 nM,COc1cc2ncnc(N[C@H](C)c3cccc4ccccc34)c2cc1OC
5,58 nM,COc1ccc2c(NCc3ccccc3)ncnc2c1
